# Measured values reported in patent US10584117B2, “1,3,4-oxadiazole amide derivative compound as histone deacetylase 6 inhibitor, and pharmaceutical composition containing same” (Chong Kun Dang Pharmaceutical Corp., priority 2015, dated 2020).
# Target: T1, human recombinant HDAC6 (Homo sapiens, UniProt Q9UBN7)
# T1 construct: purchased Calbiochem 382180
# T1 sequence (Q9UBN7 1-1215): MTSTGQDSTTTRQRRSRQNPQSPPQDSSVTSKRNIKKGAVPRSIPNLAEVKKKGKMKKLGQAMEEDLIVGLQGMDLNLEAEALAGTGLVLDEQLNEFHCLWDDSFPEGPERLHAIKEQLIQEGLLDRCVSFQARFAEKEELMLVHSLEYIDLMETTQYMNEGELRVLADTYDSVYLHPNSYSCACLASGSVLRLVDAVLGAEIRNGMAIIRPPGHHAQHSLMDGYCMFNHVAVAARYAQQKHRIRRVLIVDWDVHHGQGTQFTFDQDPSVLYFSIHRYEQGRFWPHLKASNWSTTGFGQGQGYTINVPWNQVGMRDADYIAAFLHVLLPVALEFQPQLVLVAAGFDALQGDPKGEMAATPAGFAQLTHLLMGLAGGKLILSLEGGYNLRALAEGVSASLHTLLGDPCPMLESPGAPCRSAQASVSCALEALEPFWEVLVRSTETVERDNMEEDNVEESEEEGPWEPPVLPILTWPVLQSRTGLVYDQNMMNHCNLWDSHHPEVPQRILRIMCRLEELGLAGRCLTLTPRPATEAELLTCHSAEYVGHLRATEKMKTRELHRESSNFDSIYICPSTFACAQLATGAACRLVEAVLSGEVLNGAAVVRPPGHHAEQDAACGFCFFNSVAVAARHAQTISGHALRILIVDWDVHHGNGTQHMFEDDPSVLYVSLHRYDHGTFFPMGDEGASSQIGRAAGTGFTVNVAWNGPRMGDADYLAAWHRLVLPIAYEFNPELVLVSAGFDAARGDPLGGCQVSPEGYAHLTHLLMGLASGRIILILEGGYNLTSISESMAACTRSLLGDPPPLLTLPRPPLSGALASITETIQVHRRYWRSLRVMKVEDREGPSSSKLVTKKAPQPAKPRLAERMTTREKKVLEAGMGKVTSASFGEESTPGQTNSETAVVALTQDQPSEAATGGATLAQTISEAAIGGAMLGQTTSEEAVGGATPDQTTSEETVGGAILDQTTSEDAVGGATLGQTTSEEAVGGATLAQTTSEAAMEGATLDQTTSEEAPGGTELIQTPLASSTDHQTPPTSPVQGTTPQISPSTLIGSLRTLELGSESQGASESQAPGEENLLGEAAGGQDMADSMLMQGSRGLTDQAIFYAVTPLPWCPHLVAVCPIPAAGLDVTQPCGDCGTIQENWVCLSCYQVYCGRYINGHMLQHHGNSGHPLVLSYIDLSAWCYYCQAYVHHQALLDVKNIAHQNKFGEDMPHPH
# Assay: HDAC enzyme activity inhibition assay (HDAC6, fluorimetric kit)
# Format: biochemical
# Conditions: for HDAC6 selectivity (fold): HDAC6 versus HDAC1; for IC50: same protocol as the HDAC1 test
# Protocol: In order to examine the HDAC6 selectivity of the compounds of formula I of the present invention by HDAC1 and HDAC6 enzymatic activity inhibition assays, an experiment was performed using a conventional substance as a control. HDAC enzyme activity was measured using a HDAC Fluorimetric Drug Discovery Kit (BML-AK511, 516) from Enzo Life Science. For the HDAC1 enzyme activity test, human recombinant HDAC1 (BML-SE456) was used as an enzyme source, and Fluor de Lys®-“SIRT1 (BNL-KI177) was used as a substrate. A 5-fold dilution of the compound was seeded into a 96-well plate, and then 0.3 μg of the enzyme and 10 μM of the substrate were added to each well of the plate and allowed to react at 30° C. for 60 minutes. Then, Fluor de Lys®-Developer II (BML-KI176) was added thereto and allowed to react for 30 minutes, after which the fluorescence value (Ex 360, Em 460) was measured using a multi-plate reader (Flexstation 3, Molecular Device). The HDAC6 enzyme was tested using human recombinant HDAC6 (382180) from Calbiochem, according to the same protocol as the HDAC1 enzyme activity test method. Based on the resulting values, each IC50 value was calculated using GraphPad Prism4.0 program.
HDAC6 selectivity (fold),IC50 [nM],Compound
452,221,"CC(C)C(=O)N1CCC(C(=O)N(Cc2ccc(-c3nnc(C(F)(F)F)o3)cc2)c2ccccc2)CC1 [Compound 11163, 1-isobutyryl-N-phenyl-N-(4-(5-(trifluoromethyl)-1,3,4-oxadiazol-2-yl)benzyl)piperidine-4-carboxamide]"
298,336,"O=C(C1CCN(C(=O)C(F)(F)F)CC1)N(Cc1ccc(-c2nnc(C(F)(F)F)o2)cc1)c1ccccc1 [Compound 11164, N-phenyl-1-(2,2,2-trifluoroacetyl)-N-(4-(5-(trifluoromethyl)-1,3,4-oxadiazol-2-yl)benzyl)piperidine-4-carboxamide]"
800,125,"CS(=O)(=O)N1CCC(C(=O)N(Cc2ccc(-c3nnc(C(F)(F)F)o3)cc2)c2ccccc2)CC1 [Compound 11165, 1-(methylsulfonyl)-N-phenyl-N-(4-(5-(trifluoromethyl)-1,3,4-oxadiazol-2-yl)benzyl)piperidine-4-carboxamide]"
144,189,"CC(=O)N1CC(C(=O)N(Cc2ccc(-c3nnc(C(F)(F)F)o3)cc2)c2ccccc2)C1 [Compound 11187, N1-acetyl-N-phenyl-N-(4-(5-(trifluoromethyl)-1,3,4-oxadiazol-2-yl)benzyl)azetidine-3-carboxamide]"
935,107,"O=C(c1ccncc1)N(Cc1ccc(-c2nnc(C(F)(F)F)o2)cc1F)c1cccc(F)c1 [Compound 11188, N-(2-fluoro-4-(5-(trifluoromethyl)-1,3,4-oxadiazol-2-yl)benzyl)-N-(3-fluorophenyl)isonicotinamide]"
2564,39,"O=C(c1ccncc1)N(Cc1ccc(-c2nnc(C(F)F)o2)cc1F)c1cccc(F)c1 [Compound 11189, N-(4-(5-(difluoromethyl)-1,3,4-oxadiazol-2-yl)-2-fluorobenzyl)-N-(3-fluorophenyl)isonicotinamide]"
763,131,"CN1CCC(C(=O)N(Cc2ccc(-c3nnc(C(F)(F)F)o3)cc2F)c2ccccc2)CC1 [Compound 11200, N-(2-fluoro-4-(5-(trifluoromethyl)-1,3,4-oxadiazol-2-yl)benzyl)-1-methyl-N-phenylpiperidine-4-carboxamide]"
877,114,CCN1CCC(C(=O)N(Cc2ccc(-c3nnc(C(F)(F)F)o3)cc2F)c2ccccc2)CC1 [Compound 11201]
735,136,"CC(C)N1CCC(C(=O)N(Cc2ccc(-c3nnc(C(F)(F)F)o3)cc2F)c2ccccc2)CC1 [Compound 11202, N-(2-fluoro-4-(5-(trifluoromethyl)-1,3,4-oxadiazol-2-yl)benzyl)-1-isopropyl-N-phenylpiperidine-4-carboxamide]"
694,144,"CC(=O)N1CCC(C(=O)N(Cc2ccc(-c3nnc(C(F)(F)F)o3)cc2F)c2ccccc2)CC1 [Compound 11203, 1-acetyl-N-(2-fluoro-4-(5-(trifluoromethyl)-1,3,4-oxadiazol-2-yl)benzyl)-N-phenylpiperidine-4-carboxamide]"
917,109,"CCC(=O)N1CCC(C(=O)N(Cc2ccc(-c3nnc(C(F)(F)F)o3)cc2F)c2ccccc2)CC1 [Compound 11204, N-(2-fluoro-4-(5-(trifluoromethyl)-1,3,4-oxadiazol-2-yl)benzyl)-N-phenyl-1-propionylpiperidine-4-carboxamide]"
332,301,"CC(C)C(=O)N1CCC(C(=O)N(Cc2ccc(-c3nnc(C(F)(F)F)o3)cc2F)c2ccccc2)CC1 [Compound 11205, N-(2-fluoro-4-(5-(trifluoromethyl)-1,3,4-oxadiazol-2-yl)benzyl)-1-isobutyryl-N-phenylpiperidine-4-carboxamide]"
269,372,"O=C(C1CCN(C(=O)C(F)(F)F)CC1)N(Cc1ccc(-c2nnc(C(F)(F)F)o2)cc1F)c1ccccc1 [Compound 11206, N-(2-fluoro-4-(5-(trifluoromethyl)-1,3,4-oxadiazol-2-yl)benzyl)-N-phenyl-1-(2,2,2-trifluoroacetyl)piperidine-4-carboxamide]"
813,123,"CS(=O)(=O)N1CCC(C(=O)N(Cc2ccc(-c3nnc(C(F)(F)F)o3)cc2F)c2ccccc2)CC1 [Compound 11207, N-(2-fluoro-4-(5-(trifluoromethyl)-1,3,4-oxadiazol-2-yl)benzyl)-1-(methylsulfonyl)-N-phenylpiperidine-4-carboxamide]"
1136,88,"CN1CCC(C(=O)N(Cc2ccc(-c3nnc(C(F)F)o3)cc2F)c2ccccc2)CC1 [Compound 11208, N-(4-(5-(difluoromethyl)-1,3,4-oxadiazol-2-yl)-2-fluorobenzyl)-1-methyl-N-phenylpiperidine-4-carboxamide]"
1031,97,"CCN1CCC(C(=O)N(Cc2ccc(-c3nnc(C(F)F)o3)cc2F)c2ccccc2)CC1 [Compound 11209, N-(4-(5-(difluoromethyl)-1,3,4-oxadiazol-2-yl)-2-fluorobenzyl)-1-ethyl-N-phenylpiperidine-4-carboxamide]"
418,239,"CC(C)N1CCC(C(=O)N(Cc2ccc(-c3nnc(C(F)F)o3)cc2F)c2ccccc2)CC1 [Compound 11210, N-(4-(5-(difluoromethyl)-1,3,4-oxadiazol-2-yl)-2-fluorobenzyl)-1-isopropyl-N-phenylpiperidine-4-carboxamide]"
1351,74,"CC(=O)N1CCC(C(=O)N(Cc2ccc(-c3nnc(C(F)F)o3)cc2F)c2ccccc2)CC1 [Compound 11211, 1-acetyl-N-(4-(5-(difluoromethyl)-1,3,4-oxadiazol-2-yl)-2-fluorobenzyl)-N-phenylpiperidine-4-carboxamide]"
1124,89,"CCC(=O)N1CCC(C(=O)N(Cc2ccc(-c3nnc(C(F)F)o3)cc2F)c2ccccc2)CC1 [Compound 11212, N-(4-(5-(difluoromethyl)-1,3,4-oxadiazol-2-yl)-2-fluorobenzyl)-N-phenyl-1-propionylpiperidine-4-carboxamide]"
781,128,"CC(C)C(=O)N1CCC(C(=O)N(Cc2ccc(-c3nnc(C(F)F)o3)cc2F)c2ccccc2)CC1 [Compound 11213, N-(4-(5-(difluoromethyl)-1,3,4-oxadiazol-2-yl)-2-fluorobenzyl)-1-isobutyryl-N-phenylpiperidine-4-carboxamide]"
714,140,"O=C(C1CCN(C(=O)C(F)(F)F)CC1)N(Cc1ccc(-c2nnc(C(F)F)o2)cc1F)c1ccccc1 [Compound 11214, N-(4-(5-(difluoromethyl)-1,3,4-oxadiazol-2-yl)-2-fluorobenzyl)-N-phenyl-1-(2,2,2-trifluoroacetyl)piperidine-4-carboxamide]"
1667,60,"CS(=O)(=O)N1CCC(C(=O)N(Cc2ccc(-c3nnc(C(F)F)o3)cc2F)c2ccccc2)CC1 [Compound 11215, N-(4-(5-(difluoromethyl)-1,3,4-oxadiazol-2-yl)-2-fluorobenzyl)-1-(methylsulfonyl)-N-phenylpiperidine-4-carboxamide]"
